According to PubChem BioAssay AID248 (DTP/NCI, 2004):
Where “and” joins values, the source holds several entries; their conditions need not be identical. Identical values can stand only once. Inconclusive results and toxic doses are left out. Cut-off read from the data, not from the text of the source: active = T/C of 150% or more; inactive = T/C below 125%. Square brackets hold non-standard residues; d marks the D form. Peptide text beside a SMILES is read from it. * marks the point of attachment. Arg(NO2) = N=C(NCCC[CH](N)C(=O)O)N[N+](=O)[O-]; Cbz = O=C(OCc1ccccc1)*

Tested on: L1210 leukemia ip in BDF1 mice, survival T/C
Test: NCI In Vivo Anticancer Drug Screen. Data for tumor model L1210 Leukemia (intraperitoneal) in B6D2F1 (BDF1) mice
Conditions: endpoint: mean survival time, higher = longer survival
Summary of the method: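 Mice bearing the transplanted tumor received compound or vehicle. Survival of the treated group was divided by that of the vehicle-treated control group to give the ratio.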

[1] = dose: 100.0 mg/kg/injection, schedule: Q01DX001 (ip), vehicle: saline
[2] = dose: 200.0 mg/kg/injection, schedule: Q01DX001 (ip), vehicle: saline
[3] = dose: 400.0 mg/kg/injection, schedule: Q01DX001 (ip), vehicle: saline
[4] = dose: 100.0 mg/kg/injection, schedule: Q01DX009 (ip), vehicle: Klucel (hydroxypropylcellulose) (HPC)
[5] = dose: 100.0 mg/kg/injection, schedule: Q04DX003 (ip), vehicle: Klucel (hydroxypropylcellulose) (HPC)
[6] = dose: 200.0 mg/kg/injection, schedule: Q01DX009 (ip), vehicle: Klucel (hydroxypropylcellulose) (HPC)
[7] = dose: 200.0 mg/kg/injection, schedule: Q04DX003 (ip), vehicle: Klucel (hydroxypropylcellulose) (HPC)
[8] = dose: 400.0 mg/kg/injection, schedule: Q01DX009 (ip), vehicle: Klucel (hydroxypropylcellulose) (HPC)
[9] = dose: 400.0 mg/kg/injection, schedule: Q04DX003 (ip), vehicle: Klucel (hydroxypropylcellulose) (HPC)
[10] = dose: 100.0 mg/kg/injection, schedule: Q04DX003 (ip), vehicle: saline with Tween-80
[11] = dose: 100.0 mg/kg/injection, schedule: Q04DX003 (ip), vehicle: saline
[12] = dose: 200.0 mg/kg/injection, schedule: Q04DX003 (ip), vehicle: saline with Tween-80
[13] = dose: 200.0 mg/kg/injection, schedule: Q04DX003 (ip), vehicle: saline
[14] = dose: 400.0 mg/kg/injection, schedule: Q04DX003 (ip), vehicle: saline with Tween-80
[15] = dose: 400.0 mg/kg/injection, schedule: Q04DX003 (ip), vehicle: saline
[16] = dose: 50.0 mg/kg/injection, schedule: Q01DX001 (ip), vehicle: saline
[17] = dose: 100.0 mg/kg/injection, schedule: Q01DX001 (ip), vehicle: carboxymethylcellulose (CMC)
[18] = dose: 200.0 mg/kg/injection, schedule: Q01DX001 (ip), vehicle: carboxymethylcellulose (CMC)
[19] = dose: 400.0 mg/kg/injection, schedule: Q01DX001 (ip), vehicle: carboxymethylcellulose (CMC)

Measured: T/C

CCCCOC(=O)CC(=O)OC
inactive: dose: 100.0 mg/kg/injection, schedule: Q01DX009 (ip), vehicle: acetone 93 % of control | dose: 100.0 mg/kg/injection, schedule: Q04DX003 (ip), vehicle: acetone 100 % of control | dose: 200.0 mg/kg/injection, schedule: Q01DX009 (ip), vehicle: acetone 90 % of control | dose: 200.0 mg/kg/injection, schedule: Q04DX003 (ip), vehicle: acetone 103 % of control | dose: 400.0 mg/kg/injection, schedule: Q01DX009 (ip), vehicle: acetone 93 % of control | dose: 400.0 mg/kg/injection, schedule: Q04DX003 (ip), vehicle: acetone 107 % of control

C(=N\N1CCN(/N=C/c2ccc(OCc3ccccc3)cc2)CC1)/c1ccc(OCc2ccccc2)cc1
inactive: [1] 102 % of control | [2] 96 % of control | [3] 93 % of control

CN(C)c1ccccc1C(=O)NNC(=S)Nc1ccccc1
inactive: [4] 103 % of control | [5] 96 % of control | [6] 96 % of control | [7] 93 % of control | [8] 93 % of control | [9] 94 % of control

Cc1ccccc1Nc1c(C)cccc1C(=O)O
inactive: dose: 100.0 mg/kg/injection, schedule: Q01DX009 (ip), vehicle: saline 100 % of control | dose: 200.0 mg/kg/injection, schedule: Q01DX009 (ip), vehicle: saline 92 % of control | dose: 400.0 mg/kg/injection, schedule: Q01DX009 (ip), vehicle: saline 86 % of control

Cc1cc(Sc2cc(C)[n+]([O-])c(C)c2)cc(C)[n+]1[O-]
inactive: [5] 103 % of control | [7] 100 % of control | [9] 114 % of control

O=C(NCc1ccccc1)C1C2CC3OC(=O)C1C3C2 (stereo not given)
inactive: [10] 98 % of control | [11] 123 % of control | [12] 95 % of control | [13] 104 % of control | [14] 95 % of control | [15] 104 % of control

CC(=O)Nc1ccc(S(=O)(=O)Cl)cc1
inactive: dose: 75.0 mg/kg/injection, schedule: Q01DX001 (ip), vehicle: other 94 % of control | [11] 108 % of control | dose: 150.0 mg/kg/injection, schedule: Q01DX001 (ip), vehicle: other 88 % of control | [13] 92 % of control | [15] 90 % of control

N#CCC(=O)N1CCCC1
inactive: [16] 95 % of control | [1] 104 % of control | [2] 98 % of control | [3] 95 % of control

COc1ccc(N=C=S)cc1N=C=S
inactive: dose: 6.25 mg/kg/injection, schedule: Q01DX009 (ip), vehicle: saline with Tween-80 101 % of control | dose: 12.5 mg/kg/injection, schedule: Q01DX009 (ip), vehicle: saline with Tween-80 103 % of control | dose: 25.0 mg/kg/injection, schedule: Q01DX009 (ip), vehicle: saline with Tween-80 104 % of control

CCN(c1ccccc1)c1ccc([N+](=O)[O-])cc1[N+](=O)[O-]
inactive: [17] 107 % of control | [18] 91 % of control | [19] 100 % of control

CCCCC(=O)N(CC)CC
inactive: dose: 100.0 mg/kg/injection, schedule: Q01DX001 (ip), vehicle: acetone 97 % of control | dose: 200.0 mg/kg/injection, schedule: Q01DX001 (ip), vehicle: acetone 97 % of control

CC(=O)N/N=C(/C)C1CC2CCC1C2 (stereo not given)
inactive: [1] 104 % of control | [2] 106 % of control | [3] 112 % of control

COC(=O)C(CCCN=C(N)N[N+](=O)[O-])NC(=O)C(Cc1ccccc1)NC(=O)C1CCCN1C(=O)OCc1ccccc1 (stereo not drawn) (Cbz-Pro-Phe-[Arg(NO2)]-OMe; configuration not given here)
inactive: [1] 90 % of control | [2] 96 % of control | [3] 92 % of control

O=C(O)CCCc1ccc(Br)cc1
inactive: [10] 96 % of control | [12] 92 % of control | [14] 93 % of control

c1coc(-c2cnc3ccccc3n2)c1
inactive: dose: 75.0 mg/kg/injection, schedule: Q01DX001 (ip), vehicle: carboxymethylcellulose (CMC) 109 % of control | dose: 150.0 mg/kg/injection, schedule: Q01DX001 (ip), vehicle: carboxymethylcellulose (CMC) 91 % of control

Cc1ccc(S(=O)(=O)/N=C(\N)CCl)cc1
inactive: dose: 12.5 mg/kg/injection, schedule: Q04DX002 (ip), vehicle: saline with Tween-80 98 % of control | dose: 25.0 mg/kg/injection, schedule: Q04DX002 (ip), vehicle: saline with Tween-80 120 % of control | dose: 50.0 mg/kg/injection, schedule: Q04DX002 (ip), vehicle: saline with Tween-80 95 % of control

Nc1ccc([N+](=O)[O-])cc1[N+](=O)[O-]
inactive: dose: 25.0 mg/kg/injection, schedule: Q04DX003 (ip), vehicle: Klucel (hydroxypropylcellulose) (HPC) 103 % of control | dose: 50.0 mg/kg/injection, schedule: Q04DX003 (ip), vehicle: Klucel (hydroxypropylcellulose) (HPC) 98 % of control | [5] 95 % of control and 105 % of control

CCOC(OCC)c1cc(=O)[nH]c(N)n1
inactive: [4] 101 % of control | [6] 97 % of control | [8] 96 % of control

CN(C)c1ccc(N=Nc2ccccc2)c2cccnc12
inactive: dose: 6.25 mg/kg/injection, schedule: Q01DX009 (ip), vehicle: DMSO 103 % of control | dose: 12.5 mg/kg/injection, schedule: Q01DX009 (ip), vehicle: DMSO 94 % of control | dose: 25.0 mg/kg/injection, schedule: Q01DX009 (ip), vehicle: DMSO 96 % of control | dose: 50.0 mg/kg/injection, schedule: Q01DX009 (ip), vehicle: DMSO 92 % of control | dose: 100.0 mg/kg/injection, schedule: Q01DX009 (ip), vehicle: DMSO 96 % of control | dose: 100.0 mg/kg/injection, schedule: Q04DX003 (ip), vehicle: DMSO 94 % of control | dose: 200.0 mg/kg/injection, schedule: Q04DX003 (ip), vehicle: DMSO 88 % of control | dose: 400.0 mg/kg/injection, schedule: Q04DX003 (ip), vehicle: DMSO 90 % of control

CN(C)C(=O)c1cccc([N+](=O)[O-])c1
inactive: [10] 97 % of control | [12] 94 % of control

CCOC(=O)CC(=Nc1ccccc1OC)C(=O)OCC
inactive: [4] 97 % of control | [5] 105 % of control | [6] 98 % of control | [7] 98 % of control | [8] 91 % of control | [9] 107 % of control

COc1ccccc1CNCCCO
inactive: [16] 96 % of control | [1] 102 % of control | [2] 106 % of control | [3] 100 % of control

O=C(O)C1CCCCN1[N+](=O)[O-] (stereo not given)
inactive: [1] 96 % of control | [2] 100 % of control | [3] 100 % of control

NC(=O)NC(NC(=O)NC(NC(N)=O)c1ccco1)c1ccco1 (stereo not given)
inactive: [5] 102 % of control | [7] 96 % of control | [9] 88 % of control

Cn1c(=O)c2[nH]c(C3CC4C5CCC(C5)C4C3)nc2n(C)c1=O (stereo not given)
inactive: [16] 100 % of control | [1] 108 % of control | [2] 100 % of control | [3] 96 % of control

Nc1nc(Br)c(Br)nc1N
inactive: [10] 104 % of control | [12] 96 % of control | [14] 93 % of control

Cc1c(Br)sc2ccccc12
inactive: [17] 96 % of control | [18] 96 % of control | [19] 107 % of control
